Test results published in patent US20260200884A1, “COMPOUND FOR TREATING GOUT OR HYPERURICEMIA” (Arthrosi Therapeutics, Inc., priority 2019, published 2026).

What was measured:
[1] = cited from earlier work
[2] = Solubility of the test article in HBSS assay buffer; type: physicochemical; conditions: all tested concentrations 0.01-10 μM; highest tested concentration 10 μM
Protocol: Before the experiment, the medium was removed and the cells were washed twice with 100 μL of HBSS without Cl^−. Uptake experiments were carried out at 37±1° C. in 50 μL of HBSS without Cl^−, pH 7.4 containing the probe substrate (20 μM uric acid) and the test article (TA) or solvent.
Results: Compound 1 was soluble in HBSS buffer at all tested concentrations; the highest tested concentration being 10 μM.

| solubility in HBSS buffer [2] | Structure (SMILES) | serum uric acid (sUA) level reached ([1]; chronic therapy, patients) | hepatotoxicity ([1]; in certain patients) |
| --- | --- | --- | --- |
| – | CCc1oc2ccccc2c1C(=O)c1cc(Br)c(O)c(Br)c1 [Benzbromarone] | < 6 mg/dL | associated with hepatotoxicity |
| soluble | [2H]c1c(O)c([2H])c2oc(C(C)O)c(C(=O)c3cc(Br)c(O)c(Br)c3)c2c1[2H] (stereo not drawn) [Compound 1, (3,5-dibromo-4-hydroxyphenyl)(6-hydroxy-2-(1-hydroxyethyl)benzofuran-3-yl-4,5,7-d3)methanone] | – | – |
